The text below walks through data of patent EP4653437A2 (Innovo Therapeutics Inc., priority 2023, dated 2024).

Test [1] has as its target T1, human 15-PGDH (Homo sapiens, UniProt P15428).
T1 construct: purchased R&D System 5660-DH
T1 sequence (P15428 1-266): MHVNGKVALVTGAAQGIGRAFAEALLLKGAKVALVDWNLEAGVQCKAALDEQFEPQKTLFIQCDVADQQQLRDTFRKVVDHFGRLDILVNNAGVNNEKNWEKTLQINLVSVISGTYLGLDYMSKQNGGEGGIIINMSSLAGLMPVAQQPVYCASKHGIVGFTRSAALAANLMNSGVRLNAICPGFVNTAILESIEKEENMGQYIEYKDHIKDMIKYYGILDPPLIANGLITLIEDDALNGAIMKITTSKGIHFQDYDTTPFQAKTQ
In words: Evaluation of 15-PGDH inhibitory activity (fluorescence enzyme assay, NAD+/PGE2). In kind it is biochemical. The following applies: human 15-PGDH enzyme, fluorescence Vmax. As for the experimental part: 15-PGDH inhibition activity of Example compounds was measured as follows. 6.7 ng of human 15-PGDH (R&D System# 5660-DH) enzyme (10 µL) was added to a black 96 well plate, 60 µL of buffer (50 mM Tris-HCl, pH 7.5, 0.01% Tween 20) was added, and 10 µL of 200 µM β-Nicotinamide adenine dinucleotide sodium salt (Sigma, Cat# N0632-5G) was added. 10 µL of (10x) compound solution in DMSO was added and reacted for 10 minutes at room temperature.

Test [2] concerns A549 cells. Nature of the test: Measurement of PGE2-increasing activity in A549 cells (IL-1β stimulated, PGE2 quantified in supernatant). It is filed as cell-based. The following applies: for fold induction at 1 µM: Homo sapiens, 24 h, concentration of 1 µM of each compound, IL-1β treated A549 cells, read-out: Increased PGE2 production in A549 cells. The method, boiled down:
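PGE2 secreted into the supernatant was measured by immunoassay 24 h after treatment. Before treatment, A549 cells were cultured 24 h in 10% FBS F12K, washed, and placed in serum-free medium containing compound (DMSO 0.1% final) plus or minus IL-1β, incubated at 37 °C, 5% CO2.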

Molecule `Cn1nccc1-c1cc(-c2cccc3c(C(=O)N4CCCCC4)cnn23)cc(N2CCOC2=O)n1` [Example 367, 3-(6-(1-methyl-1H-pyrazol-5-yl)-4-(3-(piperidine-1-carbonyl)pyrazolo[1,5-a]pyridin-7-yl)pyridin-2-yl)oxazolidin-2-one] came in with an IC50 in test [1] not above 100 nM. Also, in test [2], the fold induction at 1 µM is more than 1.5.

For the molecule `NC(=O)Nc1cccc(-c2cccc3c(C(=O)N4CCCCC4)cnn23)c1` [Example 92, 1-(3-(3-(piperidine-1-carbonyl)pyrazolo[1,5-a]pyridin-7-yl)phenyl)urea], the concentration for half-maximal inhibition (IC50) in test [1] is not above 100 nM. In addition, the fold induction at 1 µM in test [2] is more than 1.5.

In the case of `N#Cc1cc(-c2cccc3c(C(=O)N4CCCCC4)cnn23)ccc1F` [Example 254, 2-fluoro-5-[3-(piperidine-1-carbonyl)pyrazolo[1,5-a]pyridin-7-yl]benzonitrile], the IC50 in test [1] was not above 100 nM. Also, the fold induction at 1 µM in test [2] was more than 1.5.

`O=C1CC(C(=O)Nc2ccc(-c3cccc4c(C(=O)N5CCCCC5)cnn34)cn2)CCN1` (centres unmarked) [Example 105, 2-oxo-N-(5-(3-(piperidine-1-carbonyl)pyrazolo[1,5-a]pyridin-7-yl)pyridin-2-yl)piperidine-4-carboxamide] came in with an IC50 in test [1] not above 100 nM. Also, the “Increased PGE2 production in A549 cells” value in test [2] was “++ (key: +: 0 < PGE2 increasing ability < 1.5; ++: PGE2 increasing ability ≥ 1.5)”.

`O=C(c1cnn2c(-c3cncc(F)c3)cccc12)N1CCCCC1` [Example 284, (7-(5-fluoropyridin-3-yl)pyrazolo[1,5-a]pyridin-3-yl)(piperidin-1-yl)methanone]: in test [1], the IC50 is not above 100 nM. In addition, the fold induction at 1 µM in test [2] was more than 1.5.

In turn, `O=C(c1cnn2c(-c3cnc(Cl)nc3)cccc12)N1CCCCC1` [Example 267, (7-(2-chloropyrimidin-5-yl)pyrazolo[1,5-a]pyridin-3-yl)(piperidin-1-yl)methanone] yielded an IC50 in test [1] not above 100 nM. In addition, the fold induction at 1 µM in test [2] is more than 1.5.

`CC(C)N1Cc2ccc(-c3cccc4c(C(=O)N5CCCCC5)cnn34)cc2C1=O` [Example 142, 2-isopropyl-6-(3-(piperidine-1-carbonyl)pyrazolo[1,5-a]pyridin-7-yl)isoindolin-1-one] had an IC50 in test [1] not above 100 nM. Further, the fold induction at 1 µM in test [2] is more than 1.5.

`O=C(c1cnn2c(-c3ccc(N4CCOC4=O)nc3)cccc12)N1CCCC(F)C1` (centres unmarked) [Example 383, 3-(5-(3-(3-fluoropiperidine-1-carbonyl)pyrazolo[1,5-a]pyridin-7-yl)pyridin-2-yl)oxazolidin-2-one] came in with an IC50 in test [1] not above 100 nM. Also, the fold induction at 1 µM in test [2] is more than 1.5.

Consider `O=C(c1cncc(-c2cccc3c(C(=O)N4CCCCC4)cnn23)c1)N1CC(O)C1` [Example 42, (3-hydroxyazetidin-1-yl)(5-(3-(piperidine-1-carbonyl)pyrazolo[1,5-a]pyridin-7-yl)pyridin-3-yl)methanone], for which the IC50 in test [1] is not above 100 nM. The fold induction at 1 µM in test [2] was more than 1.5.

Regarding `CN1CCN(C(=O)c2ccc(-c3cccc4c(C(=O)N5CCCCC5)cnn34)cn2)CC1` [Example 83, (4-methylpiperazin-1-yl)(5-(3-(piperidine-1-carbonyl)pyrazolo[1,5-a]pyridin-7-yl)pyridin-2-yl)methanone], the IC50 in test [1] is not above 100 nM. Also, the fold induction at 1 µM in test [2] is more than 1.5.

For `C[C@H]1CCCN(C(=O)c2cnn3c(-c4ccc5c(c4)C(=O)NC5)cccc23)C1` [Example 386, (S)-6-(3-(3-methylpiperidine-1-carbonyl)pyrazolo[1,5-a]pyridin-7-yl)isoindolin-1-one], the IC50 in test [1] was not above 100 nM. Further, the fold induction at 1 µM in test [2] is more than 1.5.

In turn, `CC(C)NC(=O)c1ccc(-c2cccc3c(C(=O)N4CCCCC4)cnn23)cc1` [Example 60, N-isopropyl-4-(3-(piperidine-1-carbonyl)pyrazolo[1,5-a]pyridin-7-yl)benzamide] gave an IC50 in test [1] not above 100 nM. For the same molecule, in test [2], the fold induction at 1 µM was more than 1.5.

The molecule `Cc1noc(C)c1-c1cc(-c2cccc3c(C(=O)N4CCCCC4)cnn23)cc(N2CCOC2=O)n1` [Example 368, 3-(6-(3,5-dimethylisoxazol-4-yl)-4-(3-(piperidine-1-carbonyl)pyrazolo[1,5-a]pyridin-7-yl)pyridin-2-yl)oxazolidin-2-one] had a half-inhibitory concentration (IC50) in test [1] not above 100 nM. Moreover, the fold induction at 1 µM in test [2] was more than 1.5.

On to `N#CCCNC(=O)c1cncc(-c2cccc3c(C(=O)N4CCCCC4)cnn23)c1` [Example 51, N-(2-cyanoethyl)-5-(3-(piperidine-1-carbonyl)pyrazolo[1,5-a]pyridin-7-yl)nicotinamide], for which the IC50 in test [1] is not above 100 nM. The fold induction at 1 µM in test [2] is more than 1.5.

As to `O=C(c1cnn2c(-c3ccc(-c4nnn[nH]4)cc3)cccc12)N1CCCCC1` [Example 114, (7-(4-(1H-tetrazol-5-yl)phenyl)pyrazolo[1,5-a]pyridin-3-yl)(piperidin-1-yl)methanone], the IC50 in test [1] was not above 100 nM. The fold induction at 1 µM in test [2] is more than 1.5.

In test [1], `O=C(c1cnn2c(-c3ccnc(-c4cnn(Cc5ncon5)c4)c3)cccc12)N1CCCCC1` [Example 397, (7-(2-(1-((1,2,4-oxadiazol-3-yl)methyl)-1H-pyrazol-4-yl)pyridin-4-yl)pyrazolo[1,5-a]pyridin-3-yl)(piperidin-1-yl)methanone] returned a concentration for half-maximal inhibition (IC50) not above 100 nM. The fold induction at 1 µM in test [2] was more than 1.5.

In test [1], `Cn1nccc1-c1cc(-c2cccc3c(C(=O)N4CCCCC4)cnn23)cc(N2CCOCC2)n1` [Example 369, (7-(2-(1-methyl-1H-pyrazol-5-yl)-6-morpholinopyridin-4-yl)pyrazolo[1,5-a]pyridin-3-yl)(piperidin-1-yl)methanone] returned a half-maximal inhibitory concentration (IC50) not above 100 nM. For the same molecule, the fold induction at 1 µM in test [2] was more than 1.5.

Molecule `O=C(NCC1CC1)c1cncc(-c2cccc3c(C(=O)N4CCCCC4)cnn23)c1` [Example 46, N-(cyclopropylmethyl)-5-(3-(piperidine-1-carbonyl)pyrazolo[1,5-a]pyridin-7-yl)nicotinamide] displayed an IC50 in test [1] not above 100 nM. Also, in test [2], the fold induction at 1 µM is more than 1.5.

As to `Cc1noc(C)c1-c1cc(-c2cccc3c(C(=O)N4CCCCC4)cnn23)cc(N2CCOCC2)n1` [Example 371, (7-(2-(3,5-dimethylisoxazol-4-yl)-6-morpholinopyridin-4-yl)pyrazolo[1,5-a]pyridin-3-yl)(piperidin-1-yl)methanone], in test [1], the IC50 is not above 100 nM. Further, the fold induction at 1 µM in test [2] was more than 1.5.

For `O=C(c1ncc(-c2cccc3c(C(=O)N4CCCCC4)cnn23)cc1F)N1CCC1` [Example 248, [7-[6-(azetidine-1-carbonyl)-5-fluoro-3-pyridyl]pyrazolo[1,5-a]pyridin-3-yl]-(1-piperidyl)methanone], the IC50 in test [1] was not above 100 nM. Besides, in test [2], the fold induction at 1 µM was more than 1.5.

`O=C(c1cnn2c(-c3cc(-c4cncc(F)c4)nc(N4CCOCC4)c3)cccc12)N1CCCCC1` [Example 376, (7-(5'-fluoro-6-morpholino-[2,3'-bipyridin]-4-yl)pyrazolo[1,5-a]pyridin-3-yl)(piperidin-1-yl)methanone] came in with an IC50 in test [1] not above 100 nM. Besides, the fold induction at 1 µM in test [2] is more than 1.5.

Consider `O=C(c1cnn2c(-c3ccc(N4CC(O)C4)nc3)cccc12)N1CCCCC1` [Example 210, (7-(6-(3-hydroxyazetidin-1-yl)pyridin-3-yl)pyrazolo[1,5-a]pyridin-3-yl)(piperidin-1-yl)methanone], for which the IC50 in test [1] is not above 100 nM. For the same molecule, the fold induction at 1 µM in test [2] was more than 1.5.

`N#Cc1ccc(-c2cccc3c(C(=O)N4CCCCC4)cnn23)cc1F` [Example 22, 2-fluoro-4-(3-(piperidine-1-carbonyl)pyrazolo[1,5-a]pyridin-7-yl)benzonitrile] gave an IC50 in test [1] not above 100 nM. Besides, the fold induction at 1 µM in test [2] was more than 1.5.

Regarding `Cn1cnc(-c2cccc3c(C(=O)N4CCCCC4)cnn23)cc1=O` [Example 207, 3-methyl-6-(3-(piperidine-1-carbonyl)pyrazolo[1,5-a]pyridin-7-yl)pyrimidin-4(3H)-one], the IC50 in test [1] is not above 100 nM. In test [2], the fold induction at 1 µM is less than 1.5.

On to `O=C(Nc1cccnc1)c1cncc(-c2cccc3c(C(=O)N4CCCCC4)cnn23)c1` [Example 53, 5-(3-(piperidine-1-carbonyl)pyrazolo[1,5-a]pyridin-7-yl)-N-(pyridin-3-yl)nicotinamide], for which the IC50 in test [1] was not above 100 nM. In addition, the fold induction at 1 µM in test [2] is more than 1.5.

Regarding `N#Cc1ccc(-c2cccc3c(C(=O)N4CCC(F)CC4)cnn23)cc1` [Example 156, 4-(3-(4-fluoropiperidine-1-carbonyl)pyrazolo[1,5-a]pyridin-7-yl)benzonitrile], in test [1], the IC50 is not above 100 nM. The fold induction at 1 µM in test [2] is more than 1.5.

In test [1], `CCC1CCCN(C(=O)c2cnn3c(-c4ccc5c(c4)C(=O)NC5)cccc23)C1` (centres unmarked) [Example 393, 6-(3-(3-ethylpiperidine-1-carbonyl)pyrazolo[1,5-a]pyridin-7-yl)isoindolin-1-one] had an IC50 not above 100 nM. Moreover, the fold induction at 1 µM in test [2] was more than 1.5.

Take `O=C(Nc1ccc(-c2cccc3c(C(=O)N4CCCCC4)cnn23)cc1)C1CC1` [Example 100, N-(4-(3-(piperidine-1-carbonyl)pyrazolo[1,5-a]pyridin-7-yl)phenyl)cyclopropanecarboxamide]: the IC50 in test [1] is not above 100 nM. The fold induction at 1 µM in test [2] is more than 1.5.

What is called IC50 is the concentration at which inhibition is half-maximal. Low readings indicate greater potency, high ones weaker potency.
